From patent publication US20060099235A1, “Medical devices and compositions useful for treating or inhibiting restenosis” (Medtronic Vascular, Inc., priority 2004, published 2006) come the findings set out here.

Series [1] concerns human coronary artery smooth muscle cells (hCASMCs). Briefly: Microscopic evaluation of cell morphology after 3-day exposure. Type of series: cell-based. The note with it: hCASMC, 3 days. Here is the method: (§1) Leptomycin B's anti-proliferative efficacy was tested at different concentrations (0.01 nM, 0.1 nM, 1.0 nM, 10.0 nM, 100 nM and 1000 nM) using a three day exposure to hCASMC. The same experiment was performed twice at two separate times to ascertain leptomycin's effect on cell proliferation using a cell viability assay, and the cell phenotype through a qualitative observation of cell morphology following the 3-day exposure to leptomycin B.
The evaluation of cell phenotype on drug-treated wells was performed by optical microscopy observation and capture of representative images at 200× (total magnification). Microscopic evaluation and pictures were performed before the proliferation assay was done on the 24-well drug-treated plate.
Representative microphotographs (See FIGS. 8-14) of cells exposed to different concentrations of leptomycin B for a period of three days. HCASMCs cultured in the absence of the drug (FIG. 8) reached a ˜90% confluency with the expected healthy phenotype at three days (duration of the assay), providing an adequate control.

The test system is the same in series [2]. Kind of series: CellTiter-Glo Luminescent Cell Viability (proliferation) assay, 3-day exposure. It counts as cell-based. Here is the method:
as §1
The CellTiter-Glo® Luminescent Cell Viability Assay (Promega Corporation, Madison, Wis.) is a method of determining the number of viable cells in culture based on the quantitation of ATP, as an indicator of metabolically active cells (proliferating). A single reagent is added to cells directly in culture, this reagent lyses the cells and provides the luciferase enzyme that reacts with the liberated ATP to create a luminescent signal.
Twenty-four well plates were seeded with hCASMC at 5×10^3 cells per well (n=3) using methods know to those skilled in the art of cell culture. For example and not intended as a limitation: Materials • 1. Human coronary smooth muscles cells (HCASMC) are obtained from Clonetics, a division of Cambrex, Inc. • 2. HCASMC basal media, supplied by Clonetics and supplemented with fetal bovine serum, insulin, hFGF-B (human fibroblast growth factor) hEGF (human epidermal growth factor). • 3. Leptomycin B was purchased from LC Laboratories. Wobum, Mass., USA catalogue number L-6100 • 4. Absolute methanol • 5. Twenty-four well polystyrene tissue culture plates
Dilutions of the drug were made in serum-free cell culture media from the stock solution. A volume of 100 μL of each dilution was added to designated wells. […]
The CellTiter-Glo® Luminescent Cell Viability Assay (Promega Corporation, Madison, Wis.) was performed to assess percent viability. The CellTiter-Glo® Luminescent Cell Viability Assay is a homogeneous method of determining the number of viable cells in culture based on quantitation of the ATP present, which signals the presence of metabolically active cells. […]

As to `CCC(=C/[C@H](C)C/C=C/C(C)=C/[C@@H](C)C(=O)[C@@H](C)[C@H](O)[C@@H](C)C/C(C)=C/C(=O)O)/C=C/[C@@H]1OC(=O)C=C[C@@H]1C` [leptomycin B, 2,10,12,16,18-nonadecapentaenoic acid], the “microscopic signs of cytotoxicity” value in series [1] (0.01-1000 nM) is listed as “No microscopic signs of cytotoxicity”. In series [1] (200x optical microscopy, control ~90% confluency), the level of confluence result is “decreased level of confluence”. Also, in series [2] (0.01-1000 nM, two trials (FIGS. 6 and 7)), the “effect on human coronary artery smooth muscle cell proliferation” value is listed as “inhibitory effect”. Further, the “concentration showing inhibitory effect on hCASMC proliferation in vitro” value in series [2] (concentrations as low as) was not below 1 nM. Moreover, in series [2] (hCASMC), the “nature of the effect (cytostatic vs cytotoxic)” value is “predominantly cytostatic rather than cytotoxic”.
